Starred links: 1 amine or outer side, 2 acyl side, 3 side chain; linkers in the order of their positions; H or OH if unused. Positions of bridges follow the written chain, without caps; N, C: chain ends. Non-standard residues stand in square brackets, D forms with d. Residues, ends and D or L forms follow the SMILES beside them. Groups on a side chain read outwards from the residue. *: point of attachment. Me3N+(CH2)2O(CH2)2O(CH2)2CO = C[N+](C)(C)CCOCCOCCC(=O)*; Trp(7-Me) = Cc1cccc2c(C[C@H](N)C(=O)O)c[nH]c12; PEG9 = NCCOCCOCCOCCOCCOCCOCCOCCOCCOCCC(=O)O; Phe(4-CH2NH2) = NCc1ccc(C[C@H](N)C(=O)O)cc1; X71 = C[N+](C)(C)CC(F)(F)C(F)(F)C(F)(F)C*; γGlu = O=C(O)[C@H](CCC(=O)[*:2])N[*:1]; 2Nal = N[C@@H](Cc1ccc2ccccc2c1)C(=O)O; AEF = NCCOc1ccc(C[C@H](N)C(=O)O)cc1; NMe3Pal = CN[C@@H](Cc1cccnc1)C(=O)O; dNMeY = CN[C@H](Cc1ccc(O)cc1)C(=O)O; 3Pal = N[C@@H](Cc1cccnc1)C(=O)O; Lys(Me) = CNCCCC[C@H](N)C(=O)O; NMeK = CN[C@@H](CCCCN)C(=O)O; Pen = CC(C)(S)[C@H](N)C(=O)O; αMeK = C[C@](N)(CCCCN)C(=O)O; Lauroyl = CCCCCCCCCCCC(=O)*; Thp = NC1(C(=O)O)CCOCC1; X3 = C[N+](C)(C)CCCCC*; AEEA = NCCOCCOCC(=O)O; Sar = CNCC(=O)O
Biological target: T1, IL-23R (Homo sapiens, UniProt Q5VWK5)
T1 construct: host or cells: HEK293
T1 sequence (Q5VWK5 24-629): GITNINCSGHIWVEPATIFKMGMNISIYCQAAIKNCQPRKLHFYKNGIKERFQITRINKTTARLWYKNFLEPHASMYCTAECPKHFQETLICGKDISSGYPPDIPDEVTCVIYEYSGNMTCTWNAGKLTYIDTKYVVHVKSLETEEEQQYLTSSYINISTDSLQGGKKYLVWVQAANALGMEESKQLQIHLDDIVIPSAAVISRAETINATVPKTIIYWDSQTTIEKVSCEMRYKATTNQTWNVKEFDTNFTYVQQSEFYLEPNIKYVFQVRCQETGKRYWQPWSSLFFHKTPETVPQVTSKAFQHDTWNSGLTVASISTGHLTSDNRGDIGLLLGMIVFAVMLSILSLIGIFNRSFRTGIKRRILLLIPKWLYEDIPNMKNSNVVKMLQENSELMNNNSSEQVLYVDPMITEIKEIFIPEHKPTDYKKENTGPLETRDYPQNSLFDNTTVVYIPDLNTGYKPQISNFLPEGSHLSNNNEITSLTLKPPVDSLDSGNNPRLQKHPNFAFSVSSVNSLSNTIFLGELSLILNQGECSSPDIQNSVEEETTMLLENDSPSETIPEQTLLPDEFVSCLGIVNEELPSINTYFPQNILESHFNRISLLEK
Assay: IL23R Reporter Assay
Assay type: cell-based
Conditions: HEK293 cells containing IL-23R, IL-12RP1 and STAT-inducible firefly luciferase reporter; 10 ng/mL IL-23 (EC90); 5 h at 37° C.; read-out: IL23R Reporter Assay

IC50 [nM]	Compound
150	CC(=O)NCCCC[C@H](NC(=O)[C@](C)(CCCCN)NC(=O)[C@H](Cc1ccc2ccccc2c1)NC(=O)[C@H](Cc1ccc(OCCN)cc1)NC(=O)[C@H]1NC(=O)[C@H](Cc2ccc(CNC(C)=O)cc2)NC(=O)[C@H](Cc2c[nH]c3c(C)cccc23)NC(=O)[C@H]([C@@H](C)O)NC(=O)[C@H](CC(N)=O)NC(=O)[C@@H](NC(C)=O)C(C)(C)SSC1(C)C)C(=O)N[C@@H](CC(N)=O)C(=O)N[C@H](CCCCN)C(=O)N(C)[C@H](Cc1ccc(O)cc1)C(N)=O [compound 23, MeCO-Pen(3)-N-T-7MeW-Paf(Ac)-Pen(3)-AEF-2Nal-aMeK-K(Ac)-N-k-NMeDTyr-CONH2] (Ac-[Pen]NT[Trp(7-Me)][Phe(4-CH2NH2)](Ac)[Pen][AEF][2Nal][αMeK]K(Ac)N[dK][dNMeY]-NH2; disulfide 1-6)
940	CC(=O)NCCCC[C@@H]1NC(=O)[C@H](Cc2c[nH]c3c(C)cccc23)NC(=O)[C@H]([C@@H](C)O)NC(=O)[C@H](CC(N)=O)NC(=O)[C@@H](NC(=O)[C@@H](CCCNC(=N)N)NC(C)=O)C(C)(C)SSC(C)(C)[C@@H](C(=O)N[C@@H](Cc2ccc(OCCN)cc2)C(=O)N[C@@H](Cc2ccc3ccccc3c2)C(=O)NC2(C(=O)N[C@@H](CCC(=O)O)C(=O)N[C@@H](CC(N)=O)C(=O)N(C)[C@@H](Cc3cccnc3)C(N)=O)CCOCC2)NC1=O [compound 36] (Ac-[dR][Pen]NT[Trp(7-Me)]K(Ac)[Pen][AEF][2Nal][Thp]EN[NMe3Pal]-NH2; disulfide 2-7 (inferred))
6.8	CC(=O)NCCCC[C@@H]1NC(=O)[C@H](Cc2c[nH]c3c(C)cccc23)NC(=O)[C@H]([C@@H](C)O)NC(=O)[C@H](CC(N)=O)NC(=O)[C@@H](NC(=O)[C@@H](CCCCNC(=O)CCOCCOCCOCCOCCOCCOCCOCCOCCOCCNC(C)=O)NC(C)=O)C(C)(C)SSC(C)(C)[C@@H](C(=O)N[C@@H](Cc2ccc(OCCN)cc2)C(=O)N[C@@H](Cc2ccc3ccccc3c2)C(=O)NC2(C(=O)N[C@@H](CCCCNC(C)=O)C(=O)N[C@@H](CC(N)=O)C(=O)N[C@@H](Cc3cccnc3)C(=O)N(C)CC(N)=O)CCOCC2)NC1=O [compound 44] (Ac-[dK]([PEG9-Ac])[Pen]NT[Trp(7-Me)]K(Ac)[Pen][AEF][2Nal][Thp]K(Ac)N[3Pal][Sar]-NH2; disulfide 2-7 (inferred))
55	CC(=O)NCCCC[C@@H]1NC(=O)[C@H](Cc2c[nH]c3c(C)cccc23)NC(=O)[C@H]([C@@H](C)O)NC(=O)[C@H](CC(N)=O)NC(=O)[C@@H](NC(C)=O)C(C)(C)SSC(C)(C)[C@@H](C(=O)N[C@@H](Cc2ccc(OCCN)cc2)C(=O)N[C@@H](Cc2ccc3ccccc3c2)C(=O)NC2(C(=O)N[C@@H](CCC(=O)O)C(=O)N[C@@H](CC(N)=O)C(=O)N[C@@H](Cc3cccnc3)C(=O)N(C)CC(=O)N(C)C)CCOCC2)NC1=O [compound 276] (Ac-[Pen]NT[Trp(7-Me)]K(Ac)[Pen][AEF][2Nal][Thp]EN[3Pal][Sar]-NMe2; disulfide 1-6 (inferred))
24	CC(=O)N(C)CCCC[C@@H]1NC(=O)[C@H](Cc2c[nH]c3c(C)cccc23)NC(=O)[C@H]([C@@H](C)O)NC(=O)[C@H](CC(=O)N(C)C)NC(=O)[C@@H](NC(=O)CCOCCOCC[N+](C)(C)C)C(C)(C)SSC(C)(C)[C@@H](C(=O)N[C@@H](Cn2cc(CC[N+](C)(C)C)nn2)C(=O)N[C@@H](Cc2ccc3ccccc3c2)C(=O)NC2(C(=O)N[C@@H](CCCCN(C)C(C)=O)C(=O)N[C@@H](CC(N)=O)C(=O)N[C@@H](Cc3cccnc3)C(=O)N(C)CC(=O)N(C)C)CCOCC2)NC1=O [compound 287, cPEG3aCO-Pen(3)-N(N(Me)2)-T-7MeW-K(NMeAc)-Pen(3)-Tzl(Ch)-2Nal-THP-K(NMeAc)-N-3Pya-Sar-CON(Me)2]
4.2	CCCCCCCCCCCC(=O)N[C@@H](CCC(=O)NCCOCCOCC(=O)NCCOCCOCC(=O)NCCCC[C@@H](C(N)=O)N(C)C(=O)[C@H](Cc1cccnc1)NC(=O)[C@H](CC(N)=O)NC(=O)[C@H](CCCCN(C)C(C)=O)NC(=O)C1(NC(=O)[C@H](Cc2ccc3ccccc3c2)NC(=O)[C@H](Cc2ccc(OCCCCC[N+](C)(C)C)cc2)NC(=O)[C@H]2NC(=O)[C@H](CCCCNC(C)=O)NC(=O)[C@H](Cc3c[nH]c4c(C)cccc34)NC(=O)[C@H]([C@@H](C)O)NC(=O)[C@H](CC(=O)N(C)C)NC(=O)[C@@H](NC(=O)CCOCCOCC[N+](C)(C)C)C(C)(C)SSC2(C)C)CCOCC1)C(=O)O [compound 313, cPEG3aCO-Pen(3)-N(N(Me)2)-T-7MeW-K(Ac)-Pen(3)-TMAPF-2Nal-THP-K(NMeaC)-N-3Pya-NMeK(PEG2PEG2gEC12)-CONH2] ({Me3N+(CH2)2O(CH2)2O(CH2)2CO}-[Pen]D(NMe2)T[Trp(7-Me)]K(Ac)[Pen]Y(X3)[2Nal][Thp][Lys(Me)](Ac)N[3Pal][NMeK]([AEEA-AEEA-γGlu-Lauroyl])-NH2; disulfide 1-6)
7	CCCCCCCCCCCC(=O)N[C@@H](CCC(=O)NCCOCCOCC(=O)NCCOCCOCC(=O)NCCCC[C@@H](C(N)=O)N(C)C(=O)[C@H](Cc1cccnc1)NC(=O)[C@H](CC(N)=O)NC(=O)[C@H](CCCCN(C)C(C)=O)NC(=O)C1(NC(=O)[C@H](Cc2ccc3ccccc3c2)NC(=O)[C@H](Cc2ccc(OCCCCC[N+](C)(C)C)cc2)NC(=O)[C@H]2NC(=O)[C@H](CCCCN(C)C(C)=O)NC(=O)[C@H](Cc3c[nH]c4c(C)cccc34)NC(=O)[C@H]([C@@H](C)O)NC(=O)[C@H](CC(=O)N(C)C)NC(=O)[C@@H](NC(=O)CCOCCOCC[N+](C)(C)C)C(C)(C)SSC2(C)C)CCOCC1)C(=O)O [compound 314, cPEG3aCO-Pen(3)-N(N(Me)2)-T-7MeW-K(NMeAC)-Pen(3)-TMAPF-2Nal-THP-K(NMeaC)-N-3Pya-NMeK(PEG2PEG2gEC12)-CONH2] ({Me3N+(CH2)2O(CH2)2O(CH2)2CO}-[Pen]D(NMe2)T[Trp(7-Me)][Lys(Me)](Ac)[Pen]Y(X3)[2Nal][Thp][Lys(Me)](Ac)N[3Pal][NMeK]([AEEA-AEEA-γGlu-Lauroyl])-NH2; disulfide 1-6)
140	CCCCCCCCCCCC(=O)N[C@@H](CCC(=O)NCCOCCOCC(=O)NCCOCCOCC(=O)NCCCC[C@H](NC(=O)C1(NC(=O)[C@H](Cc2ccc3ccccc3c2)NC(=O)[C@H](Cc2ccc(OCCCCC[N+](C)(C)C)cc2)NC(=O)[C@H]2NC(=O)[C@H](CCCCNC(C)=O)NC(=O)[C@H](Cc3c[nH]c4c(C)cccc34)NC(=O)[C@H]([C@@H](C)O)NC(=O)[C@H](CC(=O)N(C)C)NC(=O)[C@@H](NC(=O)CCOCCOCC[N+](C)(C)C)C(C)(C)SSC2(C)C)CCOCC1)C(=O)N[C@@H](CC(N)=O)C(=O)N[C@@H](Cc1cccnc1)C(=O)N(C)[C@@H](CCCCNC(=O)COCCOCCNC(=O)COCCOCCNC(=O)CC[C@H](NC(=O)CCCCCCCCCCC)C(=O)O)C(N)=O)C(=O)O [compound 353, cPEG3aCO-Pen(3)-N(N(Me)2)-T-7MeW-K(Ac)-Pen(3)-TMAPF-2Nal-THP-K(PEG2PEG2gEC12)-N-3Pya-NMeK(PEG2PEG2gEC12)-CONH2] ({Me3N+(CH2)2O(CH2)2O(CH2)2CO}-[Pen]D(NMe2)T[Trp(7-Me)]K(Ac)[Pen]Y(X3)[2Nal][Thp]K([AEEA-AEEA-γGlu-Lauroyl])N[3Pal][NMeK]([AEEA-AEEA-γGlu-Lauroyl])-NH2; disulfide 1-6)
87	CCCCCCCCCCCC(=O)N[C@@H](CCC(=O)NCCOCCOCC(=O)NCCOCCOCC(=O)NCCOCCOCC(=O)NCCCC[C@H](NC(=O)C1(NC(=O)[C@H](Cc2ccc3ccccc3c2)NC(=O)[C@H](Cc2ccc(OCCCCC[N+](C)(C)C)cc2)NC(=O)[C@H]2NC(=O)[C@H](CCCCNC(C)=O)NC(=O)[C@H](Cc3c[nH]c4c(C)cccc34)NC(=O)[C@H]([C@@H](C)O)NC(=O)[C@H](CC(=O)N(C)C)NC(=O)[C@@H](NC(=O)CCOCCOCC[N+](C)(C)C)C(C)(C)SSC2(C)C)CCOCC1)C(=O)N[C@@H](CC(N)=O)C(=O)N[C@@H](Cc1cccnc1)C(=O)N(C)[C@@H](CCCCNC(=O)COCCOCCNC(=O)COCCOCCNC(=O)COCCOCCNC(=O)CC[C@H](NC(=O)CCCCCCCCCCC)C(=O)O)C(N)=O)C(=O)O [compound 373, cPEG3aCO-Pen(3)-N(N(Me)2)-T-7MeW-K(Ac)-Pen(3)-TMAPF-2Nal-THP-K(PEG2PEG2PEG2gEC12))-N-3Pya-NMeK(PEG2PEG2PEG2gEC12)-CONH2] ({Me3N+(CH2)2O(CH2)2O(CH2)2CO}-[Pen]D(NMe2)T[Trp(7-Me)]K(Ac)[Pen]Y(X3)[2Nal][Thp]K([AEEA-AEEA-AEEA-γGlu-Lauroyl])N[3Pal][NMeK]([AEEA-AEEA-AEEA-γGlu-Lauroyl])-NH2; disulfide 1-6)

Same assay, conditions: IL23R Reporter Assay (micromolar), HEK293 cells containing IL-23R, IL-12RP1 and STAT-inducible firefly luciferase reporter; 10 ng/mL IL-23 (EC90); 5 h at 37° C.

Compound	IC50 [nM]
CC(=O)N(C)CCCC[C@@H]1NC(=O)[C@H](Cc2c[nH]c3c(C)cccc23)NC(=O)[C@H]([C@@H](C)O)NC(=O)[C@H](CC(=O)N(C)C)NC(=O)[C@@H](NC(=O)CCOCCOCC[N+](C)(C)C)C(C)(C)SSC(C)(C)[C@@H](C(=O)N[C@@H](Cc2ccc(OCC(F)(F)C(F)(F)C(F)(F)C[N+](C)(C)C)cc2)C(=O)N[C@@H](Cc2ccc3ccccc3c2)C(=O)NC2(C(=O)N[C@@H](CCCCN(C)C(C)=O)C(=O)N[C@@H](CC(N)=O)C(=O)N[C@@H](Cc3cccnc3)C(=O)N(C)CC(=O)N(C)C)CCOCC2)NC1=O [compound 338, cPEG3aCO-Pen(3)-N(N(Me)2)-T-7MeW-K(NMeAc)-Pen(3)-hFTMAPF-2Nal-THP-K(NMeAc)-N-3Pya-Sar-CON(Me)2] ({Me3N+(CH2)2O(CH2)2O(CH2)2CO}-[Pen]D(NMe2)T[Trp(7-Me)][Lys(Me)](Ac)[Pen]Y(X71)[2Nal][Thp][Lys(Me)](Ac)N[3Pal][Sar]-NMe2; disulfide 1-6)	1.6
